Laboratory results: patent US6355799B1, “Substituted benzene compounds, process for their preparation, and herbicidal and defoliant compositions containing them” (ISK Americas Incorporated, priority 1997, dated 2002)
Where two headings read alike, the source gives them in different places.

Tests used:
Type in all cases: in vivo
[1] = tested on: barnyardgrass (Echinochloa crus-galli, ECHCG); assay: Post-emerge test, greenhouse herbicide activity screening; conditions: for pest or weed control at 63 g/ha / pest or weed control at 250 g/ha: Echinochloa crus-galli, post-emergence, 336 h, read-out: Post-emerge Herbicidal Activity ECHCG; for phytotoxicity rating ECHCG: rating scale 0-100
Outline: (§1)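 Applied at 15–1000 g ai/ha from acetone in 187 l/ha spray volume. Post-emergence applications included 0.25% v/v non-ionic surfactant and reached plants sown 8–21 days before. Pre-emergence applications were incorporated by surface watering. Efficacy or crop damage was rated on a 0–100 scale after 14 days.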

[2] = tested on: ivyleaf morningglory (Ipomoea hederacea, IPOHE); assay: as above; conditions: for pest or weed control at 63 g/ha / pest or weed control at 250 g/ha: Ipomoea, post-emergence, 336 h, read-out: Post-emerge Herbicidal Activity IPOHE; for phytotoxicity rating IPOHE: rating scale 0-100
Outline: as §1

[3] = tested on: redroot pigweed (Amaranthus retroflexus, AMARE); assay: as above; conditions: for pest or weed control at 63 g/ha / pest or weed control at 250 g/ha: Amaranthus retroflexus, post-emergence, 336 h, read-out: Post-emerge Herbicidal Activity AMARE
Outline: as §1

[4] = tested on: velvetleaf (Abutilon theophrasti, ABUTH); assay: as above; conditions: for pest or weed control at 63 g/ha / pest or weed control at 250 g/ha: Abutilon theophrasti, post-emergence, 336 h, read-out: Post-emerge Herbicidal Activity ABUTH; for phytotoxicity rating ABUTH: rating scale 0-100
Outline: as §1

[5] = tested on: common ragweed (Ambrosia artemisizfolia L., AMBEL); assay: as above; conditions: post-emerge, phytotoxicity rating 0-100 at 14 days after application
Outline: as §1

[6] = tested on: common ragweed (Ambrosia artemisizfolia L., AMBEL); assay: Pre-emerge test, greenhouse herbicide activity screening; conditions: phytotoxicity rating 0-100, 14 days after application
Outline: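 Rating: 0–100 visual injury, 14 DAA. Application: acetone, 187 l/ha, 15–1000 g ai/ha, flat-fan track sprayer with nozzle 40–45 cm above soil or canopy. Post-emerge runs used 0.25% v/v surfactant on 2–3 leaf plants.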

[7] = post-emerge, 63 g ai/ha, phytotoxicity rating 0-100 at 14 days after application
[8] = post-emerge, 250 g ai/ha, phytotoxicity rating 0-100 at 14 days after application
[9] = 63 g ai/ha, phytotoxicity rating 0-100 (0 no damage, 100 complete death), 14 days after application
[10] = 250 g ai/ha, phytotoxicity rating 0-100 (0 no damage, 100 complete death), 14 days after application
[11] = post-emerge, 63 g ai/ha, 14 days after application
[12] = post-emerge, 250 g ai/ha, 14 days after application

Compound | pest or weed control at 63 g/ha [1, 7] [%] | pest or weed control at 250 g/ha [1, 8] [%] | pest or weed control at 63 g/ha [2, 7] [%] | pest or weed control at 250 g/ha [2, 8] [%] | pest or weed control at 63 g/ha [3, 7] [%] | pest or weed control at 250 g/ha [3, 8] [%] | pest or weed control at 63 g/ha [4, 7] [%] | pest or weed control at 250 g/ha [4, 8] [%] | other results
COc1c(Cl)cc(F)c(N2C(=O)c3ccccc3C2=O)c1NC(=O)c1ccc2ccccc2c1 [Compound 13-3, N-[4-chloro-6-fluoro-3-methoxy-2-(2-naphthoyl)aminophenyl]phthalimide] | 0 | 20 | 75 | 70 | 90 | 90 | 100 | 90 | 
COc1c(Cl)cc(F)c(-c2nn(C)c(C(F)(F)F)c2Cl)c1NC(=O)c1ccc2ccccc2c1 [Compound 7-14] |  | 10 |  | 100 |  | 70 |  | 95 | 
Cn1c(C(F)(F)F)cc(=O)n(-c2c(F)cc(Cl)c(OC(F)F)c2N)c1=O [Compound 1-38, 3-(2-amino-4-chloro-3-difluoromethoxy-6-fluorophenyl)-1-methyl-6-trifluoromethyl-2,4(1H, 3H)-pyrimidinedione] |  |  |  |  |  |  |  |  | pest or weed control at 63 g/ha [1, 9]: 0%; pest or weed control at 250 g/ha [1, 10]: 80%; pest or weed control at 63 g/ha [2, 9]: 80%; pest or weed control at 250 g/ha [2, 10]: 100%; pest or weed control at 63 g/ha [3, 9]: 80%; pest or weed control at 250 g/ha [3, 10]: 100%; pest or weed control at 63 g/ha [4, 9]: 100%; pest or weed control at 250 g/ha [4, 10]: 100%
COc1c(Cl)cc(Cl)c(-n2nc(C)n(C(F)F)c2=O)c1NC(=O)c1ccc2ccccc2c1 [Compound 6-17] | 0 | 30 | 50 | 70 | 60 | 70 | 90 | 100 | 
COc1c(Cl)cc(F)c(-n2nc(C)n(C(F)F)c2=O)c1NC(=O)c1ccc2ccccc2c1 [Compound 6-15] | 40 | 70 | 100 | 100 | 100 | 100 | 100 | 100 | 
Nc1c(O)c(Cl)cc(F)c1N1C(=O)C2=C(CCCC2)C1=O [Compound 8-2, 2-amino-6-chloro-4-fluoro-3-tetrahydrophthalimido)phenol] | 20 | 30 | 50 | 90 | 95 | 100 | 100 | 100 | Post-emerge Herbicidal Activity AMBEL ([5]; 63 g ai/ha): 30; Post-emerge Herbicidal Activity AMBEL ([5]; 250 g ai/ha): 90
Cc1nn(-c2c(Cl)cc(Cl)cc2NC(=O)c2ccc3ccccc3c2)c(=O)n1C(F)F [Compound 6-16] | 20 | 40 | 100 | 75 | 100 | 90 | 100 | 100 | 
COc1c(Cl)cc(F)c(-c2nn(C)c(C(F)(F)F)c2Cl)c1NC(=O)C=Cc1ccccc1 [Compound 7-15] | 0 | 10 | 70 | 70 | 100 | 100 | 100 | 99 | 
Cc1nn(-c2c(Cl)cc(Cl)c(N)c2N)c(=O)n1C(F)F [Compound 6-20] | 0 | 0 | 0 | 40 | 0 | 60 | 0 | 50 | 
Cc1nn(-c2c(N)cc(Cl)cc2F)c(=O)n1C(F)F [Compound 6-22] | 0 | 0 | 20 | 70 | 70 | 100 | 60 | 80 | 
COc1c(Cl)cc(F)c(-n2c(=O)cc(C(F)(F)F)n(C)c2=O)c1NC(N)=O [Compound 3-26, 3-(2-aminocarbonylamino-4-chloro-6-fluoro-3-methoxyphenyl)-1-methyl-6-trifluoromethyl-2,4(1H, 3H)-pyrimidinedione] |  |  |  |  |  |  |  |  | Pre-emerge Herbicidal Activity AMBEL ([6]; 63 g ai/ha): 10; Pre-emerge Herbicidal Activity AMBEL ([6]; 250 g ai/ha): 90; phytotoxicity rating ECHCG [1, 11]: 0; phytotoxicity rating ECHCG [1, 12]: 0; phytotoxicity rating IPOHE [2, 11]: 60; phytotoxicity rating IPOHE [2, 12]: 90; phytotoxicity rating AMARE ([3]; post-emerge, 63 g ai/ha, 14 days after application, rating scale 0-100 (0 no damage, 100 complete death)): 50; phytotoxicity rating AMARE ([3]; post-emerge, 250 g ai/ha, 14 days after application, rating scale 0-100): 65; phytotoxicity rating ABUTH [4, 11]: 60; phytotoxicity rating ABUTH [4, 12]: 60
CC(C)Oc1c(Cl)cc(F)c(-n2nnn(CCCF)c2=O)c1N [Compound 5-18, 1-(2-amino-4-chloro-6-fluoro-3-isopropyloxyphenyl)-4-(3fluoropropyl)-1,4-dihydro-5-oxo-5H-tetrazole] | 0 | 0 | 0 | 0 | 0 | 10 | 70 | 70 | 
CC(C)Oc1c(Cl)cc(F)c(N2C(=O)C3=C(CCCC3)C2=O)c1N [Compound 8-4, N-(2-amino-4-chloro-6-fluoro-3-isopropyloxyphenyl)tetrahydrophthalimide] | 0 | 0 | 0 | 20 | 70 | 90 | 60 | 80 | 
Cc1nn(-c2c(F)cc(Cl)cc2NC(=O)c2ccc3ccccc3c2)c(=O)n1C(F)F [Compound 6-24] | 0 | 0 | 0 | 60 | 0 | 80 | 20 | 95 | 
